Laboratory results from PubChem BioAssay (NCI).
Values joined by “and” are separate entries in the source; they are usually repeats but may differ in a detail not shown here. Equal values may be shown once.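 How tested: cells in 96-well plates exposed to compound for 48 hours at five concentrations. GI50 = concentration required for 50% inhibition of growth. TGI: concentration producing complete growth inhibition.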

Experiments:
Assay in all cases: DTP human tumour cell line panel, 48 h
[1] = tested on: SK-OV-3 ovarian
[2] = tested on: PC-3 prostate
[3] = tested on: K-562 leukemia
[4] = tested on: M14 melanoma
[5] = tested on: NCI/ADR-RES ovarian
[6] = tested on: UACC-257 melanoma
[7] = tested on: MDA-MB-435
[8] = tested on: SN12C renal
[9] = tested on: U251 CNS
[10] = tested on: ACHN renal

Row | Structure (SMILES) | GI50 [1] [nM] | TGI [1] | GI50 [2] [µM] | TGI [2] | GI50 [3] | TGI [3] | GI50 [4] [nM] | TGI [4] | GI50 [5] [µM] | TGI [5] | GI50 [6] [µM] | TGI [6] | GI50 [7] [nM] | TGI [7] [µM] | GI50 [8] | TGI [8] | GI50 [9] | TGI [9] | GI50 [10] [µM] | TGI [10] [µM]
1 | C=CC(=O)Nc1cc2c(Nc3ccc(F)c(Cl)c3)ncnc2cc1C#CC(C)(C)N1CCN(C)CC1 | 953 | 4.59 µM | 1.93 | 5.31 µM | 1050 nM | 6.59 µM | 2560 | 5.71 µM | 2.46 | 7.65 µM | 3.96 | 5.56 µM | 1500 | 3.9 | 572 nM | 2.51 µM | 2660 nM | 5.48 µM | 0.0779 | 4.26
2 | CC(C)OP(=O)(O)c1ncc(-c2ccc(C(F)(F)F)cc2)c(NC2CCCCCC2)n1 | > 100000 | > 100 µM | 57.1 | > 100 µM | 55000 nM | > 100 µM | > 100000 | > 100 µM | > 100 | > 100 µM | > 100 | > 100 µM | > 100000 | > 100 | > 100000 nM | > 100 µM | 77900 nM | > 100 µM | > 100 | > 100
3 | NCCCN=c1ccc2c3c1c(O)c1c(O)ccc(=O)c1c3[nH]n2CCNCCO | 1510 | 16.2 µM and 55.7 µM | 5.08 | 15.6 µM and 68 µM | 1610 nM and 1640 nM | 24.2 µM and 27.2 µM | 3670 | 14.2 µM and 28 µM | 20.1 | 25 µM and > 236 µM | 4.32 | 14.1 µM and 105 µM | – | 15.4 | 413 nM and 391 nM | 6.15 µM and 10.2 µM | 606 nM and 485 nM | 5.61 µM and 27.7 µM | – | 4.52
4 | CCOC(=O)[C@@H]1CSC(CC)=C(C(=O)O)N1 | > 100000 | > 100 µM | > 100 | > 100 µM | > 100000 nM | > 100 µM | > 100000 | > 100 µM | > 100 | > 100 µM | > 100 | > 100 µM | > 100000 | > 100 | > 100000 nM | > 100 µM | > 100000 nM | > 100 µM | > 100 | > 100
5 | COc1ccc(C(O)c2cc3c(N)c(C(=O)Nc4cccc(Br)c4C)sc3nc2C)cc1 (stereo not given) | 251 | > 33.3 µM | 0.618 | 18.4 µM | 140 nM | > 33.3 µM | 109 | > 24 µM | 0.179 | 2.99 µM | 0.307 | > 33.3 µM | 66.5 | 0.149 | 246 nM | > 33.3 µM | 164 nM | 8.61 µM | 0.216 | > 26.4
6 | CC1(C)C2CCC13C(=O)C1OC3(C2)C2C(=O)c3c(ccc4c3ccc3ccccc34)C(=O)C12 (stereo not given) | > 100000 | > 100 µM | > 66.5 | > 100 µM | 1120 nM | 82.1 µM | > 100000 | > 100 µM | > 46.7 | > 94.8 µM | > 29.2 | > 70.5 µM | > 62200 | > 100 | > 73300 nM | > 100 µM | > 64800 nM | > 100 µM | 57.4 | > 100
7 | CC(=O)Oc1cc2cnc3c4cc(OC(C)=O)c(OC(C)=O)cc4ccc3c2cc1OC(C)=O | 4320 | > 100 µM | 3.27 | > 100 µM | 2080 nM | > 100 µM | 1780 | > 100 µM | 1.88 | > 100 µM | 2.56 | > 100 µM | 506 | > 100 | 2180 nM | > 100 µM | 548 nM | 10.6 µM | 1.19 | > 100
8 | Nc1ccccc1C#Cc1ccccc1C#Cc1cccs1 | 32700 | > 100 µM | 13.8 | 33 µM | 15500 nM | 40.7 µM | 17400 | 34.1 µM | 16 | 30.7 µM | 18.1 | 53.2 µM | 4030 | 14.3 | 14500 nM | 29.1 µM | 13600 nM | 27.3 µM | 18.7 | 39.4
9 | COc1ccc(C)cc1NC(=S)C#N | – | > 100 µM | – | > 100 µM | – | > 100 µM | – | > 100 µM | – | > 100 µM | – | > 100 µM | – | > 100 | – | > 100 µM | – | > 100 µM | – | > 100
10 | Cc1cc(NN=C(c2ccc(O)cc2)c2ccc(O)cc2)c([N+](=O)[O-])cc1[N+](=O)[O-] | 2980 | 19.9 µM | 3.23 | – | 92700 nM | > 100 µM | 4500 | 21.1 µM | 3.75 | > 100 µM | 4.71 | 8.29 µM | 3460 | 14.4 | 6790 nM | 24.7 µM | 5390 nM | 81.2 µM | 4.08 | > 100
11 | CN1CC[C@H](c2c(O)cc(O)c3c(=O)cc(-c4ccccc4Cl)oc23)[C@H](O)C1 | 490 | > 10 µM | 0.0776 | > 2.59 µM | 225 nM | > 10 µM | 69.6 | 0.293 µM | 0.116 | > 10 µM | 0.128 | 0.91 µM | 71.2 | 0.26 | 70.3 nM | > 10 µM | – | > 10 µM | 0.0316 | > 10
12 | O=c1cccc(Cl)[nH]1 | – | > 100 µM | – | > 100 µM | – | > 100 µM | – | > 100 µM | – | > 100 µM | – | > 100 µM | – | > 100 | – | > 100 µM | – | > 100 µM | – | > 100
13 | CC1(C)N=C(N)N=C(N)N1c1cccc(CCc2ccccc2)c1 | 5500 | > 100 µM | 0.11 | > 59 µM | 299 nM | > 100 µM | 1290 | > 100 µM | > 100 | > 100 µM | 0.533 | 32.5 µM | 154 | 35.4 | 456 nM | > 100 µM | 113 nM | > 100 µM | 13.4 | > 100
14 | COc1cc(NC2CCCCC2O)c2nc(-c3ccc(Cl)cc3)ccc2c1 (stereo not given) | 33500 | > 100 µM | 4.87 | > 100 µM | 2820 nM | 18.4 µM | 9230 | 33.9 µM | 6.1 | > 100 µM | 12.2 | > 100 µM | 4220 | 16.6 | 9960 nM | 53.1 µM | 3880 nM | > 100 µM | 8.94 | > 100
15 | COc1ccc(/C=C/C(=O)c2cc3c(N)c(C(=O)Nc4ccc(OC)cc4)sc3nc2C)cc1 | 215 | > 50 µM | 0.434 | > 50 µM | 385 nM | > 50 µM | 190 | – | 0.185 | 1.49 µM | > 23.4 | > 50 µM | 18.9 | 0.0777 | 284 nM | > 50 µM | 1650 nM | > 30.9 µM | 0.397 | > 50
